From patent publication US20190389963A1, “COMBINATION THERAPY BY USING ANTI-GLOBO H OR ANTI-SSEA-4 ANTIBODY WITH ANTI-NEGATIVE IMMUNE CHECK POINTS ANTIBODY” (OBI Pharma, Inc., priority 2018, published 2019)

What was measured:
Jurkat/NFAT-Re Luc cells = experiment: Jurkat/NFAT-Re Luc T cell activation by Anti-CD3/CD28, luciferase reporter, after pre-incubation with Globo series ceramides; format: cell-based, human; settings: various concentrations of ceramide, pre-incubated 18-24 hours; 6 hours activation; FIG. 2
Description: Jurkat/NFAT-Re Luc cells (Promega, Inc., Cat# G7102) were pre-incubated with or without various concentrations of chemically synthesized Globo H ceramide (GHCer) or SSEA-4 ceramide (SSEA4Cer) for 18-24 hours in 48-well culture plate. Cells were collected and transferred to white, flat-bottom 96-well assay plates (Greiner Bio-One GmbH, Cat#655073) coated overnight with Anti-human CD3 (100 ng/well) (BioLegend, Inc. Cat#317326), and Anti-human CD28 (300 ng/well) (BioLegend, Inc. Cat#302914) in 37° C. incubator for a 6 hours activation. Assay plates were removed from the incubator and equilibrated to room temperature (22-25° C.) for 15 minutes. 75 μL of Bio-Glo™ Luciferase Assay Reagent (Promega, Inc. Cat#G7940) was added and incubated the plates at RT for 15 minutes. Luminescence was measured using a microplate reader SpectraMax L (Molecular Devices, LLC.). The Photomultiplier Tube (PMT) sensitivity was set as autorange and calibrated at 570 nm. Fold of induction was calculated by RLUactivated/RLUunstimulated.

[1] = system: PD-1 Effector Cells with PD-L1+ target cells (TCR signaling); experiment: PD-1/PD-L1 Blockade Bioassay with GHCer or SSEA4Cer treated PD-1 Effector Cells; format: cell-based; settings: various concentration of ceramide on PD-1 Effector Cells 24 hours, 6 hours with PD-L1+ cells; FIG. 6 as printed
Description: Various concentration of GHCer or SSEA4Cer was incubated with PD-1 Effector Cells (PD-1/PD-L1 Blockade Bioassay Kit, Promega, Cat# J3011), then incubate for 24 hours at 37° C. PD-L+ target cells (PD-1/PD-L1 Blockade Bioassay Kit, Promega, Cat# J3011) were seeded in 96 well plate and incubate for 24 hours at 37° C. with 5% CO2. The growth medium from the plate coated PD- L1+ cells was replaced by the GHCer or SSEA4Cer/Effector cells R×n and incubated for 6 hours. Plate was removed to ambient temperature for 10 mins. Bio-Glo™ Reagent was added and incubate for 15 mins then read by luminometer.

[2] = system: PD-1/PD-L1 engagement inhibited TCR signaling (PD-1 Effector Cells, PD-L1+ target cells); experiment: PD-1/PD-L1 Blockade Bioassay, GHCer treated effector cells with Keytruda or Tecentriq; format: cell-based; settings: 6 hours, FIG. 7; for Release of PD-1/PD-L1 engagement inhibited TCR signaling by checkpoint antibody: 2 μM antibody, effector cells with 40 μM GHCer
Description: (§1) 40 μM GHCer was incubated with PD-1 Effector Cells (PD-1/PD-L1 Blockade Bioassay Kit, Promega, Cat# J3011), then incubate for 24 hours at 37° C. with 5% CO2. PD-L1+ target cells were seeded in 96 well plate and incubate for 24 hours at 37° C. with 5% CO2. The growth medium from the plates coated PD-L+ cells was replaced by the GHCer/Effector cells R×n with 2 μM Keytruda, the Anti-PD-1 mAb, or 2 lμM Tecentriq, the Anti-PD-L1 mAb, and incubate for 6 hours at 37° C. with 5% CO2. Plate was removed to ambient temperature for 10 mins. Bio-Glo™ Reagent was added and incubate for 15 mins then read by luminometer.

[3] = system: PD-1/PD-L1 engagement inhibited TCR signaling (PD-1 Effector Cells, PD-L1+ target cells); experiment: PD-1/PD-L1 Blockade Bioassay, SSEA4Cer treated effector cells with Keytruda or Tecentriq; format: cell-based; settings: 6 hours, FIG. 8; for Release of PD-1/PD-L1 engagement inhibited TCR signaling by checkpoint antibody: 2 μM antibody, effector cells with 40 μM SSEA4Cer
Description: as §1, with “SSEA4Cer” for “GHCer”, “SSEA4Cer/Effector” for “GHCer/Effector”, “μM” for “lμM”

[4] = system: GHCer and PD-1/PD-L1 engagement inhibited TCR signaling (PD-1 Effector Cells, PD-L1+ target cells); experiment: PD-1/PD-L1 Blockade Bioassay, GHCer pre-incubated with OBI-888, combined with Keytruda or Tecentriq; format: cell-based; settings: 10 μM OBI-888 with GHCer 4 hours; 2 μM Keytruda or 2 μM Tecentriq, 6 hours; FIG. 10 as printed
Description: (§2) GHCer were incubated with 10 μM OBI-888 in assay medium containing 99% RPMI 1640/1% FBS (PD-1/PD-L1 Blockade Bioassay Kit, Promega, Cat# J3011) at 37° C. for 4 hours. Samples were centrifuged at 8000×g for 5 minutes twice and supernatant were harvested and incubated with PD-1 Effector Cells for 24 hours. PD-L1+ target cells were seeded in 96 well plate and incubate for 24 hours at 37° C. with 5% CO2. The growth medium from the plates coated PD- L1 cells was replaced by the GHCer/Effector cells R×n with 2 μM Keytruda or 2 μM Tecentriq and incubate for 6 hours at 37° C. with 5% CO2. Plate was removed to ambient temperature for 10 mins. Bio-Glo™ Reagent was added and incubate for 15 mins then read by luminometer.

[5] = system: SSEA4Cer and PD-1/PD-L1 engagement inhibited TCR signaling (PD-1 Effector Cells, PD-L1+ target cells); experiment: PD-1/PD-L1 Blockade Bioassay, SSEA4Cer pre-incubated with OBI-898, combined with Keytruda or Tecentriq; format: cell-based; settings: 5 μM OBI-898 with SSEA4Cer 4 hours; 2 μM Keytruda or 2 μM Tecentriq, 6 hours; FIG. 11 as printed
Description: as §2, with “SSEA4Cer were” for “GHCer were”, “with 5” for “with 10”, “μM OBI-898” for “μM OBI-888”, “medium” for “medium containing 99% RPMI 1640/1% FBS (PD-1/PD-L1 Blockade Bioassay Kit, Promega, Cat# J3011)”, “hours. PD-L+” for “hours. PD-L1+”, “the SSEA4Cer/Effector” for “the GHCer/Effector”

Substance | Jurkat T cell activation to Anti-CD3/28 stimulation (fold of induction, RLUactivated/RLUunstimulated) (Jurkat/NFAT-Re Luc cells) | Suppression of TCR activation signaling pathway together with PD-1/PD-L1 engagement [1] | Effect of GHCer incorporation on Keytruda or Tecentriq released TCR signaling ([2]; 40 μM GHCer on effector cells 24 hours, 2 μM Keytruda or 2 lμM Tecentriq) | Release of PD-1/PD-L1 engagement inhibited TCR signaling by checkpoint antibody [2] | Release of PD-1/PD-L1 engagement inhibited TCR signaling by checkpoint antibody [3] | Rescue of GHCer and PD-1/PD-L1 engagement inhibited TCR signaling by combination [4] | Rescue of SSEA4Cer and PD-1/PD-L1 engagement inhibited TCR signaling by combination [5] | Effect of SSEA4Cer incorporation on Keytruda or Tecentriq released TCR signaling ([3]; 40 μM SSEA4Cer on effector cells 24 hours, 2 μM Keytruda or 2 μM Tecentriq)
Globo H ceramide [GHCer] | suppress the Jurkat T cell activation to Anti-CD3/28 stimulation in a dose dependent manner | acts synergistically with PD-1/PD-L1 engagement to suppress the TCR activation signaling pathway | reduced Keytruda or Tecentriq released PD-1/PD-L1 engagement inhibited TCR signaling | – | – | – | – | –
Keytruda: the Anti-PD-1 mAb; MSD Ireland, Lot 7302614A13 | – | – | – | released PD-1/PD-L1 engagement inhibited TCR signaling | released PD-1/PD-L1 engagement inhibited TCR signaling | acts synergistically with Keytruda | acts synergistically with Keytruda | –
Tecentriq: the Anti-PD-L1 mAb; Roche, Lot H0125B11 | – | – | – | released PD-1/PD-L1 engagement inhibited TCR signaling | released PD-1/PD-L1 engagement inhibited TCR signaling | synergistically with Keytruda or Tecentriq | synergistically with Keytruda or Tecentriq | –
SSEA-4 ceramide [SSEA4Cer] | suppress the Jurkat T cell activation to Anti-CD3/28 stimulation in a dose dependent manner | acts synergistically with PD-1/PD-L1 engagement to suppress the TCR activation signaling pathway | – | – | – | – | – | reduced Keytruda or Tecentriq released PD-1/PD-L1 engagement inhibited TCR signaling
